Measurements as given in US20230257351A1, “SUBSTITUTED N-[…] HAVING P2X4 RECEPTOR ANTAGONISTIC ACTIVITY” (Bayer Aktiengesellschaft, priority 2020, published 2023).

Target: T1, human P2X4 (Homo sapiens, UniProt Q99571)
T1 construct: expressed in transfected cells
T1 sequence (Q99571 1-388): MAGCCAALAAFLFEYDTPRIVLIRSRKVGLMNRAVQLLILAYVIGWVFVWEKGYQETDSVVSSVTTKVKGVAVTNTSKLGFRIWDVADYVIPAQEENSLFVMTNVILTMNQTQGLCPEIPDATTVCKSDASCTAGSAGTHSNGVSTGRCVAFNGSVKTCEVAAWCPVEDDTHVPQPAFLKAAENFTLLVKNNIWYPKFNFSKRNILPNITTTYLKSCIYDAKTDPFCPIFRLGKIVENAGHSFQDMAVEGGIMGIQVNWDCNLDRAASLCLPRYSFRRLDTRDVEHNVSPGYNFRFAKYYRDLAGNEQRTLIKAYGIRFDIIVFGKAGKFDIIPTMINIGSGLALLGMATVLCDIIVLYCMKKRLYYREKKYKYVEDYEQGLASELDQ
Assay: Human P2X4 HEK Cell FLIPR Assay
Assay type: cell-based
Details: HEK293 stably expressing human P2X4, agonist Bz-ATP 3 μM (EC80)
Summary of the method: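 Compounds were preincubated 30 min at room temperature on Fluo8-AM-loaded HEK293 cells stably expressing human P2X4. The response was the calcium fluorescence rise on Bz-ATP addition.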

- Human P2X4 HEK Cells (FLIPR Assay) avg Efficacy: 95%
- IC50 (read-out: Human P2X4 HEK Cells (FLIPR Assay) avg IC50): 411 nM
Structure (SMILES): CC(=O)N(c1ccc(F)c(F)c1)c1cc(NC(=O)Cc2ccc(F)cc2Cl)ccn1 [Example 68, N-{4-[2-(2-chloro-4-fluorophenyl)acetamido]pyridin-2-yl}-N-(3,4-difluorophenyl)acetamide]
